From patent publication US20220251084A1, “PROGRANULIN MODULATORS AND METHODS OF USING THE SAME” (ARKUDA THERAPEUTICS, priority 2019, published 2022)

test system: progranulin (PGRN) secretion, BV-2 cells; assay: PGRN assay: progranulin induction cellular assay (ELISA of secreted mouse PGRN); format: cell-based; settings: not given
Experimental: Cellular Assays: To measure the efficacy of compounds, a progranulin induction cellular assay in mouse primary microglia (pMG), primary cortical neurons, and BV-2 cell lines is used. BV-2 cells are split the day before plating into a 96 well plate format at approximately 80%. Cells should be plated the day before and allowed for 1 hour attachment period and for 16 hour incubation. […] Standard ELISA kits to measure PGRN are available from vendors such as Adipogen, R&D, and Biovendor.

Question: For `N#Cc1ccc2c(c1)CCN(C(=O)O[C@@H]1CN3CCC1CC3)[C@@H]2c1ccc(F)cc1` [Compound 2034], which EC50 is on record?
Answer: The EC50 was 6.07 µM.

Question: `O=C(O[C@@H]1CN2CCC1CC2)N1CCc2cccnc2[C@H]1c1ccc(F)cc1` [Compound 2055, (S)-quinuclidin-3-yl 8-(4-fluorophenyl)-5,6-dihydro-1,7-naphthyridine-7(8H)-carboxylate] was tested. Which EC50 did it give?
Answer: The EC50 was 3.3 µM.

Question: How did the EC50 turn out when `O=C(O[C@@H]1CN2CCC1(F)CC2)N1CCc2ccccc2[C@@H]1c1ccc(F)cc1` (single isomer, unassigned) [Compound 2126] was run?
Answer: Its EC50 is 1.25 µM.

same assay, conditions: Mus musculus, BV-2

Question: Which EC50 does the source give for `CS(=O)(=O)c1ccc2c(c1)CCN(C(=O)O[C@@H]1CN3CCC1CC3)[C@H]2c1ccc(F)cc1` [Compound 2025] here?
Answer: The EC50 was > 10 µM.

Question: How did the EC50 turn out when `COC(=O)c1ccc2c(c1)CCN(C(=O)O[C@@H]1CN3CCC1CC3)[C@H]2c1ccc(F)cc1` [Compound 2086] was run?
Answer: Its EC50 is > 10 µM.

Question: Which EC50 does the source give for `CNC(=O)c1ccc2c(c1)[C@@H](c1ccc(F)cc1)N(C(=O)O[C@@H]1CN3CCC1CC3)CC2` [Compound 2066] here?
Answer: The EC50 was > 10 µM.

same assay, conditions: Mus musculus, BV-2, PGRN assay, Table C; secreted mouse PGRN in cell culture medium, ELISA

Question: With `COC(=O)c1ccc2c(c1)CCN(C(=O)OCC13CCN(CC1)CC3)[C@H]2c1ccc(F)cc1` [Compound 2072] as the compound, how does the EC50 read?
Answer: The EC50 was 8.08 µM.

Question: Which EC50 does the source give for `C#CCOc1ccc2c(c1)CCN(C(=O)N[C@@H]1CN3CCC1CC3)[C@@H]2c1ccc(F)cc1` [Compound 2064] here?
Answer: The EC50 was > 10 µM.

Question: Which EC50 does the source give for `CN1CCC(OC(=O)N2CCc3ccccc3[C@@H]2c2ccc(F)cc2)CC1` [Compound 2020] here?
Answer: The EC50 was 0.23 µM.

Question: With `C#CCOc1ccc2c(c1)[C@H](c1ccc(F)cc1)N(C(=O)N[C@@H]1CN3CCC1CC3)CC2` [Compound 2115, (S)-1-(4-fluorophenyl)-7-(prop-2-yn-1-yloxy)-N—((S)-quinuclidin-3-yl)-3,4-dihydroisoquinoline-2(1H)-carboxamide] as the compound, how does the EC50 read?
Answer: The EC50 was 8.37 µM.

Question: How did the EC50 turn out when `O=C(OCC12CCN(CC1)CC2)N1CCc2ccccc2[C@@H]1c1cc(F)c(F)c(F)c1` [Compound 2147] was run?
Answer: The EC50 was 4.74 µM.

Question: With `CS(=O)(=O)c1ccc2c(c1)CCN(C(=O)N[C@@H]1CN3CCC1CC3)[C@H]2c1ccc(F)cc1` [Compound 2040, 1-(4-fluorophenyl)-6-(methylsulfonyl)-N—((S)-quinuclidin-3-yl)-3,4-dihydroisoquinoline-2(1H)-carboxamide] as the compound, how does the EC50 read?
Answer: The EC50 was > 10 µM.

Question: How did the EC50 turn out when `CN1CCS(=O)(=O)[C@H](CC(=O)N2CCc3ccccc3[C@@H]2c2ccc(F)cc2)C1` [Compound 2042] was run?
Answer: The EC50 was 3.2 µM.

Question: `CN1CC2(CC[C@H]2OC(=O)N2CCc3ccccc3[C@@H]2c2ccc(F)cc2)C1` [Compound 2022] was tested. Which EC50 did it give?
Answer: Its EC50 is 0.96 µM.

Question: For `O=C(N[C@H]1CCCNC1)N1CCc2ccccc2[C@@H]1c1ccc(F)cc1` [Compound 2171], which EC50 is on record?
Answer: Its EC50 is 0.13 µM.

Question: How did the EC50 turn out when `CN1CCS(=O)(=O)[C@@H](CC(=O)N2CCc3ccccc3[C@@H]2c2ccc(F)cc2)C1` (single isomer, unassigned) [Compound 2043] was run?
Answer: Its EC50 is > 10 µM.

Question: `CNC(=O)c1ccc2c(c1)CCN(C(=O)OCC13CCN(CC1)CC3)[C@H]2c1ccc(F)cc1` [Compound 2080] was tested. Which EC50 did it give?
Answer: The EC50 was > 10 µM.

Question: With `C#CCOc1ccc2c(c1)[C@H](c1ccc(F)cc1)N(C(=O)OCC13CCN(CC1)CC3)CC2` [Compound 2052, (S)-quinuclidin-4-ylmethyl 1-(4-fluorophenyl)-7-(prop-2-ynyloxy)-3,4-dihydroisoquinoline-2(1H)-carboxylate] as the compound, how does the EC50 read?
Answer: Its EC50 is 6.82 µM.

Question: Which EC50 does the source give for `CN(CC1CCNCC1)C(=O)N1CCc2ccccc2[C@H]1c1ccc(F)cc1` [Compound 2183, 1-(4-fluorophenyl)-N-methyl-N-(piperidin-4-ylmethyl)-3,4-dihydroisoquinoline-2(1H)-carboxamide] here?
Answer: Its EC50 is 9.6 µM.

Question: For `CN1CC2(CC[C@@H]2OC(=O)N2CCc3ccccc3[C@@H]2c2ccc(F)cc2)C1` [Compound 2021], which EC50 is on record?
Answer: The EC50 was 0.735 µM.

Question: Which EC50 does the source give for `O=C(OCC12CCN(CC1)CC2)N1CCc2ccccc2[C@H]1c1ccc(F)c(F)c1` [Compound 2111] here?
Answer: The EC50 was 0.635 µM.

Question: `CN1CCC2(CC1)CC(OC(=O)N1CCc3ccccc3[C@@H]1c1ccc(F)cc1)C2` [Compound 2018] was tested. Which EC50 did it give?
Answer: The EC50 was 1.89 µM.

Question: Which EC50 does the source give for `CO[C@@H](CC12CCN(CC1)CC2)C(=O)N1CCc2ccccc2[C@@H]1c1ccc(F)cc1` [Compound 2027] here?
Answer: Its EC50 is > 10 µM.

Question: `COC(=O)c1ccc2c(c1)[C@H](c1ccc(F)cc1)N(C(=O)NCC13CCN(CC1)CC3)CC2` [Compound 2117, methyl (S)-1-(4-fluorophenyl)-2-((quinuclidin-4-ylmethyl)carbamoyl)-1,2,3,4-tetrahydroisoquinoline-7-carboxylate] was tested. Which EC50 did it give?
Answer: The EC50 was > 10 µM.

Question: `O=C(NCC12CCN(CC1)C2)N1CCc2ccccc2[C@@H]1c1ccc(F)cc1` [Compound 2193, (S)—N-((1-azabicyclo[2.2.1]heptan-4-yl)methyl)-1-(4-fluorophenyl)-3,4-dihydroisoquinoline-2(1H)-carboxamide] was tested. Which EC50 did it give?
Answer: The EC50 was 2.51 µM.

Question: How did the EC50 turn out when `CN1CC2CCC(C1)C2OC(=O)N1CCc2ccccc2[C@@H]1c1ccc(F)cc1` (stereo in doubt) [Compound 2094, (1S)-3-methyl-3-aza-bicyclo[3.2.1]octan-8-yl 1-(4-fluorophenyl)-3,4-dihydroisoquinoline-2(1H)-carboxylate] was run?
Answer: The EC50 was 7.22 µM.

Question: For `CN1CCC(CCOC(=O)N2CCc3ccccc3[C@@H]2c2ccc(F)cc2)CC1` [Compound 2163], which EC50 is on record?
Answer: The EC50 was > 10 µM.

Question: `O=C(N[C@@H]1CCCNC1)N1CCc2ccccc2[C@@H]1c1ccc(F)cc1` [Compound 2172] was tested. Which EC50 did it give?
Answer: Its EC50 is 0.43 µM.

same assay, conditions: Mus musculus, BV-2, PGRN assay, Table D; secreted mouse PGRN in cell culture medium, ELISA

Question: For `CN1CCCN(C(=O)N2CCc3ccccc3[C@@H]2c2ccc(F)cc2)CC1` [Compound 2269, (S)-(1-(4-fluorophenyl)-3,4-dihydroisoquinolin-2(1H)-yl)(4-methyl-1,4-diazepan-1-yl)methanone], which EC50 is on record?
Answer: Its EC50 is 0.656 µM.

Question: `O=C(N[C@@H]1CNC[C@@H]1F)N1CCc2ccccc2[C@@H]1c1ccc(F)cc1` [Compound 2353] was tested. Which EC50 did it give?
Answer: Its EC50 is 0.0339 µM.

Question: With `CN1CCC(C(=O)C(=O)N2CCc3ccccc3[C@@H]2c2ccc(F)cc2)C1` (stereo partly drawn) [Compound 2274, 1-((S)-1-(4-fluorophenyl)-3,4-dihydroisoquinolin-2(1H)-yl)-2-(1-methylpyrrolidin-3-yl)ethane-1,2-dione] as the compound, how does the EC50 read?
Answer: Its EC50 is 1.4 µM.

Question: Which EC50 does the source give for `O=C(NC[C@H]1CCCNC1)N1CCc2ccccc2[C@@H]1c1ccc(F)cc1` (single isomer, unassigned) [Compound 2220] here?
Answer: Its EC50 is 5.5 µM.

Question: Which EC50 does the source give for `O=C(NC[C@H]1CNCCO1)N1CCc2ccccc2[C@@H]1c1ccc(F)cc1` (single isomer, unassigned) [Compound 2210] here?
Answer: Its EC50 is 0.86 µM.

Question: Which EC50 does the source give for `O=C(NC[C@H]1CCCN1)N1CCc2ccccc2[C@H]1c1ccc(F)cc1` (single isomer, unassigned) [Compound 2219] here?
Answer: Its EC50 is 6.21 µM.

Question: For `O=C(N[C@H]1CCNC1)N1CCc2ccccc2[C@@H]1c1ccc(F)cc1` [Compound 2222], which EC50 is on record?
Answer: The EC50 was 0.94 µM.

Question: Which EC50 does the source give for `O=C(O[C@@H]1CNC[C@@H]1F)N1CCc2ccccc2[C@@H]1c1ccc(F)cc1` [Compound 2363] here?
Answer: Its EC50 is 0.104 µM.

Question: With `O=C(NC[C@H]1CCCN1)N1CCc2ccccc2[C@@H]1c1ccc(F)cc1` [Compound 2216] as the compound, how does the EC50 read?
Answer: Its EC50 is 2.67 µM.

Question: Which EC50 does the source give for `CN1CCC(C(O)C(=O)N2CCc3ccccc3[C@@H]2c2ccc(F)cc2)C1` (stereo partly drawn) [Compound 2267, 1-((S)-1-(4-fluorophenyl)-3,4-dihydroisoquinolin-2(1H)-yl)-2-hydroxy-2-(1-methylpyrrolidin-3-yl)ethanone] here?
Answer: The EC50 was 0.13 µM.

Question: `CN1C[C@@H](NC(=O)N2CCc3ccccc3[C@@H]2c2ccc(F)cc2)C2(CC2)C1` (single isomer, unassigned) [Compound 2317] was tested. Which EC50 did it give?
Answer: The EC50 was 9.74 µM.

Question: Which EC50 does the source give for `O=C(OC[C@H]1CCN1)N1CCc2ccccc2[C@@H]1c1ccc(F)cc1` [Compound 2240] here?
Answer: The EC50 was 2.39 µM.

Question: `CN1CC[C@H](OC(=O)N2CCc3ccccc3[C@@H]2c2ccc(F)cc2)C1` [Compound 2251] was tested. Which EC50 did it give?
Answer: Its EC50 is 0.11 µM.

Question: With `O=C(O[C@@H]1CNCC12CC2)N1CCc2ccccc2[C@@H]1c1ccc(F)cc1` (stereo in doubt) [Compound 2310, 5-azaspiro[2.4]heptan-7-yl-(1 S)-1-(4-fluorophenyl)-3,4-dihydroisoquinoline-2(1H)-carboxylate] as the compound, how does the EC50 read?
Answer: Its EC50 is 0.501 µM.

Question: How did the EC50 turn out when `CC1(C)CNC[C@H]1NC(=O)N1CCc2ccccc2[C@@H]1c1ccc(F)cc1` [Compound 2273] was run?
Answer: Its EC50 is 0.319 µM.

Question: `N[C@@H]1CCN(C(=O)N2CCc3ccccc3[C@@H]2c2ccc(F)cc2)C1` [Compound 2287] was tested. Which EC50 did it give?
Answer: The EC50 was 0.351 µM.

Question: Which EC50 does the source give for `CN1CC[C@H](N(C)C(=O)N2CCc3ccccc3[C@@H]2c2ccc(F)cc2)C1` [Compound 2270, (S)-1-(4-fluorophenyl)-N-methyl-N—((S)-1-methylpyrrolidin-3-yl)-3,4-dihydroisoquinoline-2(1H)-carboxamide] here?
Answer: The EC50 was 0.515 µM.

Question: With `O=C(N[C@H]1CNC[C@@H]1F)N1CCc2ccccc2[C@@H]1c1ccc(F)cc1` [Compound 2351, (S)-1-(4-fluorophenyl)-N-((3S,4S)-4-fluoropyrrolidin-3-yl)-3,4-dihydroisoquinoline-2(1H)-carboxamide] as the compound, how does the EC50 read?
Answer: Its EC50 is 0.13 µM.

Question: How did the EC50 turn out when `O=C(N[C@@H]1CNC[C@H]1F)N1CCc2ccccc2[C@@H]1c1ccc(F)cc1` [Compound 2360] was run?
Answer: The EC50 was 0.148 µM.

Question: For `O=C(O[C@H]1CNCC12CC2)N1CCc2ccccc2[C@@H]1c1ccc(F)cc1` (stereo in doubt) [Compound 2309, 5-azaspiro[2.4]heptan-7-yl-(1 S)-1-(4-fluorophenyl)-3,4-dihydroisoquinoline-2(1H)-carboxylate], which EC50 is on record?
Answer: Its EC50 is 0.6 µM.

Question: How did the EC50 turn out when `O=C(NC[C@@H]1CCCN1)N1CCc2ccccc2[C@H]1c1ccc(F)cc1` [Compound 2218] was run?
Answer: The EC50 was 3.95 µM.

Question: Which EC50 does the source give for `O=C(OCC1CNC1)N1CCc2ccccc2[C@@H]1c1ccc(F)cc1` [Compound 2246, Azetidin-3-ylmethyl (S)-1-(4-fluorophenyl)-3,4-dihydroisoquinoline-2(1H)-carboxylate 2,2,2-trifluoroacetate] here?
Answer: The EC50 was 0.77 µM.

Question: With `CN1C[C@@H](N(C)C(=O)N2CCc3ccccc3[C@@H]2c2ccc(F)cc2)C(F)(F)C1` [Compound 2298, (S)—N—((R)-4,4-difluoro-1-methylpyrrolidin-3-yl)-1-(4-fluorophenyl)-N-methyl-3,4-dihydroisoquinoline-2(1H)-carboxamide] as the compound, how does the EC50 read?
Answer: The EC50 was > 10 µM.

same assay, conditions: PGRN assay, Table C; secreted mouse PGRN in cell culture medium, ELISA

Question: `CN1CCC(COC(=O)N2CCc3ccccc3[C@@H]2c2ccc(F)cc2)CC1` [Compound 2095] was tested. Which EC50 did it give?
Answer: Its EC50 is 3.17 µM.
